According to patent US9382305B2, “Relaxin fusion polypeptides and uses thereof” (BAYER INTELLECTUAL PROPERTY GMBH, priority 2011, dated 2016):

T1: human LGR7/RXFP1 receptor (Homo sapiens, UniProt Q9HBX9)
T1 construct: cloned as 2271 base pair long DNA fragment; expressed in transfected cells; host or cells: CHO K1 (ATCC CCL-61) with CRE-luciferase reporter; receptor in pcDNA3.1(-)
T1 sequence (Q9HBX9 1-757): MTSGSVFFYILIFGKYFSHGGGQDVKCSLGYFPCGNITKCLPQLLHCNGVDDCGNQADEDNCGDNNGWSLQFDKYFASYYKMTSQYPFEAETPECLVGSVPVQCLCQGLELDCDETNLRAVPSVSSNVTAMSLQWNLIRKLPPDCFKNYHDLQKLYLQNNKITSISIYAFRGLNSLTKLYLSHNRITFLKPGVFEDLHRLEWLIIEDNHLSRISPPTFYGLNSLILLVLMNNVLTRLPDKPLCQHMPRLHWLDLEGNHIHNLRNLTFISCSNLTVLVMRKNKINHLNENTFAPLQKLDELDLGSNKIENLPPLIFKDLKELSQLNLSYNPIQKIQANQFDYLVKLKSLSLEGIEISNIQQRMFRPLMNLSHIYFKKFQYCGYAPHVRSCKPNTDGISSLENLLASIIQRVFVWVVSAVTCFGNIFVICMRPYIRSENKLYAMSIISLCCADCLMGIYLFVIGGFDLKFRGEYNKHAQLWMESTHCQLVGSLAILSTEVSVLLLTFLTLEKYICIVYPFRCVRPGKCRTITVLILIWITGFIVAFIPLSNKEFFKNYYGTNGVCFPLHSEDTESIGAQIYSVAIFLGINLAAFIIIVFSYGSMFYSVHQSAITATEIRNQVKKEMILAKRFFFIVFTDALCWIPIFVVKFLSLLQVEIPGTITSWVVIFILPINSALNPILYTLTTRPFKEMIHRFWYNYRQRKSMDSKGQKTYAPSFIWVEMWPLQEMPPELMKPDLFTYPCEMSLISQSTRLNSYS

B1: scR-Fc 13: rat IgG2b Fc (6 Histidine tag) linked via GlyGlySerGlyGlySerGlyGlySerPro to N terminal end of scR4; SEQ ID NO: 28 (protein)
chain: HHHHHHPTCPTCHKCPVPELLGGPSVFIFPPKPKDILLISQNAKVTCVVVDVSEEEPDVQFSWFVNNVEVHTAQTQPREEQYNSTFRVVSALPIQHQDWMSGKEFKCKVNNKALPSPIEKTISKPKGLVRKPQVYVMGPPTEQLTEQTVSLTCLTSGFLPNDIGVEWTSNGHIEKNYKNTEPVMDSDGSFFMYSKLNVERSRWDSRAPFVCSVVHEGLHNHHVEKSISRPPGKGGSGGSGGSPQLYSALANKCCHVGCTKRSLARFCGGGSGGGSGSWMEEVIKLCGRELVRAQIAICGMSTWS

Legend:
[1] = tested on: isolated perfused rat heart; assay: Isolated perfused rat heart (Langendorff); parameters: species or system Wistar rats
Method: Male Wistar rats (200-250 g) were anesthetized using Narcoren (100 mg/kg i.p.). The heart was rapidly excised and connected to a Langendorff perfusion system (FMI GmbH, Seeheim-Ober Beerbach, Germany). The heart was perfused at a constant rate of 10 ml/min with Krebs-Henseleit bicarbonate buffer solution equilibrated with 95% O2-5% CO2. The perfusion solution contained (in mmol/l): NaCl 118; KCl 3; NaHCO3 22; KH2PO41,2; MgSO4 1,2; CaCl2 1,8; Glucose 10; Na-Pyruvat 2. A pressure transducer registered the perfusion pressure in the perfusion system. The left ventricular pressure (LVP) was measured using a second pressure transducer connected to a water-filled balloon which was inserted into the left ventricle via the left atrium. The end diastolic pressure was initially set to 8 mm Hg by adjusting the volume of the balloon. The hearts were spontaneously beating. The signals from the pressure transducer were amplified, registered and used for the calculation of the heart frequency and +dp/dt by a personal computer.

[2] = In vivo plasma stability: serum levels by quantification ELISA after intravenous administration; settings: male Wistar rats, 240 μg/kg intravenously, three days after application
Method: Blood samples were collected at the indicated time points after application and serum levels of each protein were measured by using a quantification ELISA.
At time points 0 hour, 1 hour, 3 days, 5 days, and 7 days after compound administration, blood samples were taken and the concentrations of the Fc-single chain Relaxin and non-modified hRelaxin2 were determined using the commercially available quantification ELISA (R&D Systems, Human Relaxin-2 Quantikine ELISA Kit, catalogue number DRL200).

[3] = intravenously administrated, humans (Dschietzig T. et al. (2009)); cited from earlier work
[4] = molecular target: T1, human LGR7/RXFP1 receptor; assay: Relaxin activity of plasma samples from scR-Fc 13 treated rats on CHO-CRE-LGR7 cell line; type: cell-based; settings: plasma 3, 5 and 7 days after intravenous administration to rats
Method: Relaxin activity in blood samples obtained from scR-Fc 13 treated rats by using the CHO-CRE-LGR7 cell line was determined. Blood samples collected 3, 5, and 7 days after intravenous administration of scR-Fc 13 were incubated on the CHO-CRE-LGR7 cell line and Relative Lights Units were determined. Calibration curves were determined using hRelaxin 2 (R&D Systems, catalogue number 6586-RN-025) and purified scR-Fc 13. The EC50 within the dose response curve is marked by an X. Data are expressed as Relative Light Units, representing the activity of scR-Fc variants and hRelaxin 2 induced luciferase expression. Symbols represent means, error bars represent S.E.M.

activity of plasma samples [4]	Molecule	contractility (inotropic activity) ([1]; concentration of 1 nM)	coronary flow ([1]; concentration of 1 nM)	heart rate ([1]; concentration of 1 nM)	potency relative to scR-Fc 13 ([1]; isolated perfused rat heart)	coronary flow ([1]; perfusion, FIG. 11)	heart rate ([1]; perfusion, FIG. 11)	left ventricular diastolic pressure ([1]; perfusion, FIG. 11)	left ventricular pressure (+dp/dtmax) ([1]; perfusion, FIG. 11)	serum concentration (ELISA) [2]	half-life [3]	effects on heart rate, coronary flow and contractility compared with hRelaxin 2 ([1]; ten fold higher concentration than hRelaxin 2 (1 nM))
–	hRelaxin 2: commercially available recombinant expressed human Relaxin 2 (R&D Systems, catalogue number 6586-RN-025), positive control (alpha QLYSALANKCCHVGCTKRSLARFC; beta SWMEEVIKLCGRELVRAQIAICGMSTWS; listed as Homo Sapiens)	negative inotrophic activity	increase	increase	ten fold more potent	significant increase	significant increase	decrease	decrease	undetectable	less than 10 minutes	–
activity could be determined	B1	–	–	–	–	significant increase	significant increase	decrease	decrease	–	–	Comparable effects
